Experiment: Stability of crystalline compound M and Saxagliptin monohydrate form H-1 on storage, measured by HPLC
Type: physicochemical
Experimental: Unless stated otherwise, the HPLC peak % referred to herein were measured using a UV detection having a wavelength of 220 nm.
Instrumental and Chromatographic Conditions
Instrument: HPLC system equipped with UV detector.
• Flow rate: about 1 mL/min • Injection volume: about 10 μL • Column: Waters XBridge C8, 150 mm×4.6 mm, 3.5 μm • Column temperature: 25° C. • Detector: DAD (UV) at wavelengths 220 nm • Mobile phase: Gradient elution with Solution A and Solution B (see Table 1) • Solution A: Buffer solution. Dissolve in water about 24.0 g of sodium octyl-1-sulfonate in 1000 mL volumetric flask, make up to the volume with water and adjust pH to 3.3 with phosphoric acid. • Solution B: Acetonitrile, HPLC grade
• Stop time: 25 minutes • Post time: 5 minutes • Diluent: Prepare a solution of 25% acetonitrile, 25% methanol, and 50% of the buffer solution (the one that is used in gradient elution). The Following Chemicals (or Equivalent) Should Be Used:
• 1. Blank: Use the diluent. • 2. Sample preparation: Prepare SXG sample solution with concentration of about 1.0 mg/mL prepare in duplicate Procedure
Samples of crystalline compound M and Saxagliptin monohydrate form H-1 were prepared and the amount of Saxagliptin and the amount of cyclic amidine were measured by HPLC at time zero (=time 0). Samples of crystalline compound M and Saxagliptin monohydrate form H-1 were maintained for 2 weeks, 1 month and 2 months, at the conditions described in the following table. Afterwards, the amount of Saxagliptin and the amount of cyclic amidine was measured by HPLC.

| CA = cyclic amidine (amount by HPLC) (40° C./40% RH, 1 month) | SXG = Saxagliptin (amount by HPLC) (40° C./40% RH, 1 month) | CA = cyclic amidine (amount by HPLC) (40° C./40% RH, 2 months) | SXG = Saxagliptin (amount by HPLC) (40° C./40% RH, 2 months) | CA = cyclic amidine (amount by HPLC) (40° C./40% RH, 2 weeks) | SXG = Saxagliptin (amount by HPLC) (40° C./40% RH, 2 weeks) | CA = cyclic amidine (amount by HPLC) (40° C./40% RH, Time 0) | SXG = Saxagliptin (amount by HPLC) (40° C./40% RH, Time 0) | CA = cyclic amidine (amount by HPLC) (50° C./0% RH, 1 month) | SXG = Saxagliptin (amount by HPLC) (50° C./0% RH, 1 month) | CA = cyclic amidine (amount by HPLC) (50° C./0% RH, 2 months) | SXG = Saxagliptin (amount by HPLC) (50° C./0% RH, 2 months) | CA = cyclic amidine (amount by HPLC) (50° C./0% RH, 2 weeks) | SXG = Saxagliptin (amount by HPLC) (50° C./0% RH, 2 weeks) | CA = cyclic amidine (amount by HPLC) (50° C./0% RH, Time 0) | SXG = Saxagliptin (amount by HPLC) (50° C./0% RH, Time 0) | SMILES | other results |
| --- | --- | --- | --- | --- | --- | --- | --- | --- | --- | --- | --- | --- | --- | --- | --- | --- | --- |
| CA = 5.8% | SXG = 86.8% | CA = 11.5% | SXG = 77.4% | CA = 4.0% | SXG = 93.1% | CA = 0.50% | SXG = 98.9% | CA = 1.3% | SXG = 96.9% | CA = 2.1% | SXG = 94.8% | CA = 1.2% | SXG = 97.8% | CA = 0.50% | SXG = 98.9% | N#C[C@@H]1C[C@@H]2C[C@@H]2N1C(=O)[C@@H](N)C12CC3CC(CC(O)(C3)C1)C2 [Saxaglitpin base monohydrate, Form H-1, (1S,3S,5S)-2-((2S)-2-Amino-2-(3-hydroxyadamantan-1-yl)-acetyl)-2-azabicyclo[3.1.0]hexane-3-carbonitrile] | RRT1.14 (impurity amount by HPLC) (40° C./40% RH, 1 month): RRT1.14 = 4.1%; RRT1.14 (impurity amount by HPLC) (40° C./40% RH, 2 months): RRT1.14 = 7.7%; RRT1.14 (impurity amount by HPLC) (40° C./40% RH, 2 weeks): RRT1.14 = 2.1%; RRT1.14 (impurity amount by HPLC) (50° C./0% RH, 1 month): RRT1.14 = 1.1%; RRT1.14 (impurity amount by HPLC) (50° C./0% RH, 2 months): RRT1.14 = 2.51%; RRT1.14 (impurity amount by HPLC) (50° C./0% RH, 2 weeks): RRT1.14 = 0.4% |
| CA = 0.50% | SXG = 99.0% | CA = 0.61% | SXG = 99.0% | CA = 0.53% | SXG = 99.0% | CA = 0.20% | SXG = 99.6% | CA = 0.27% | SXG = 99.4% | CA = 0.31% | SXG = 99.4% | CA = 0.25% | SXG = 99.6% | CA = 0.20% | SXG = 99.6% | CC(C)=N[C@H](C(=O)N1[C@H](C#N)C[C@@H]2C[C@@H]21)C12CC3CC(CC(O)(C3)C1)C2 [crystalline Compound M, (1S,3S,5S)-2-[(2S)-2-propan-2-ylideneamino-2-(3-hydroxy-1-adamantyl)acetyl]-2-azabicyclo[3.1.0]-hexane-3-carbonitrile] | chemical stability (compared to Saxagliptin monohydrate form H-1): enhanced chemical stability |

Source: patent US8501960B2, “Saxagliptin intermediates, saxagliptin polymorphs, and processes for preparation thereof” (Assia Chemical Industries Ltd., priority 2010, dated 2013)
